Columns and labels:
[1] = test system: Monocotyledonous and dicotyledonous test plants; assay: Herbicidal action, application pre-emergence; format: in vivo; design: key: 10=total damage to plant; 0=no damage to plant; conditions: spray solution 1000 mg/l, scale 0-10; for Herbicidal action (damage score) AGSTE: Agrostis tenius; for Herbicidal action (damage score) AMARE: Amaranthus retroflexus; for Herbicidal action (damage score) DIGSA: Digitaria sanguinalis; for Herbicidal action (damage score) POATR: Poa trivialis; for Herbicidal action (damage score) SETIT: Setaria italica; for Herbicidal action (damage score) SETFA: Setaria faberi
Experimental: Monocotyledonous and dicotyledonous test plants were sown in sterilised standard soil in seed trays each having 96 cells. After one day (pre-emergence) or after 8 to 9 days cultivation (post-emergence) under controlled conditions in a climatic chamber (cultivation at 23/17° C., day/night; 13 hours light; 50-60% humidity; after application at 24/19° C., day/night), the plants were treated with an aqueous spray solution of 1000 mg/l of the active ingredient used (incl. 10% DMSO as solvent). The plants were grown on in the climatic chamber until the test was evaluated (10=total damage to plant, 0=no damage to plant) after 9 or 13 days.

SMILES | melting point [°C] | Herbicidal action (damage score) AGSTE [1] | Herbicidal action (damage score) AMARE [1] | Herbicidal action (damage score) DIGSA [1] | Herbicidal action (damage score) POATR [1] | Herbicidal action (damage score) SETIT [1] | Herbicidal action (damage score) SETFA [1]
Cn1nc(CF)c(C(F)(F)S(=O)(=O)C2=NOC(C)(C)C2)n1 [Compound No. 1.01, 4-[(5,5-dimethyl-4,5-dihydro-isoxazole-3-sulfonyl)-difluoro-methyl]-5-fluoromethyl-2-methyl-2H-[1,2,3]triazole] | 54 | 10 | 10 | 10 | 10 | 10 | –
Cn1nc(CF)c(C(F)(Cl)S(=O)(=O)C2=NOC(C)(C)C2)n1 (stereo not shown) [Compound No. 1.03, 4-[chloro-(5,5-dimethyl-4,5-dihydro-isoxazole-3-sulfonyl)-fluoro-methyl]-5-fluoromethyl-2-methyl-2H-[1,2,3]triazole] | 80 | 10 | 8 | 10 | 10 | 9 | –
COc1nn(C)nc1C(F)(F)S(=O)(=O)C1=NOC(C)(C)C1 [1.43] | – | 10 | 10 | 10 | 0 | – | 10
Cn1nnc(Br)c1C(F)(F)[S+]([O-])C1=NOC(C)(C)C1 (stereo not shown) [3.06] | – | 10 | 10 | 9 | 10 | – | 9
C=CCn1nc(C(F)[S+]([O-])C2=NOC(C)(C)C2)c(C(F)(F)F)n1 (mixture of isomers) [1.33] | – | 10 | 4 | 10 | 10 | – | 6
CC1(C)CC(S(=O)(=O)C(F)(F)c2cn(C(C)(C)C)nn2)=NO1 [2.02] | – | 9 | 3 | 9 | 9 | – | 8
CCc1nn(C)nc1C(F)(F)[S+]([O-])C1=NOC(C)(C)C1 (racemic) [1.27] | – | 10 | 10 | 10 | 10 | – | 9
Cn1nnc(C(F)(F)F)c1C(F)(F)[S+]([O-])C1=NOC(C)(C)C1 (stereo not shown) [Compound No. 3.03] | – | 10 | 10 | 9 | 10 | – | 8
Cn1nc(Br)c(C(F)(F)S(=O)(=O)C2=NOC(C)(C)C2)n1 [1.46] | – | 10 | 10 | 10 | 10 | – | 9
COCCn1nc(C(F)(F)F)c(C(F)(F)S(=O)(=O)C2=NOC(C)(C)C2)n1 [1.23] | – | 10 | 10 | 10 | 10 | – | 10
Cc1nn(C(F)F)nc1C(F)(F)S(=O)(=O)C1=NOC(C)(C)C1 [1.20] | – | 10 | 10 | 10 | 10 | – | 9
Cc1nn(C)nc1C(F)(Cl)S(=O)(=O)C1=NOC(C)(C)C1 (racemic) [Compound No. 1.07] | – | 10 | 9 | 10 | 10 | 9 | –
Cc1nn(C)nc1C(F)(F)S(=O)(=O)C1=NOC(C)(C)C1 [Compound No. 1.05] | – | 10 | 10 | 10 | 10 | 10 | –
Cn1nnc(C(F)(F)F)c1C(F)(F)S(=O)(=O)C1=NOC(C)(C)C1 [3.02] | – | 10 | 10 | 10 | 10 | 10 | –
CC1(C)CC([S+]([O-])C(F)c2cn(C(C)(C)C)nn2)=NO1 (mixture of isomers) [Compound No. 2.03] | – | 8 | 2 | 9 | 4 | – | 5
CCn1nc(C(F)(F)F)c(C(F)(F)S(=O)(=O)C2=NOC(C)(C)C2)n1 [1.15] | – | 10 | 10 | 10 | 10 | – | 10
CC1(C)CC([S+]([O-])C(F)(F)c2cn(C(C)(C)C)nn2)=NO1 (stereo not shown) [2.04] | – | 6 | 0 | 2 | 0 | – | 6
COc1nn(C)nc1C(F)(F)[S+]([O-])C1=NOC(C)(C)C1 (stereo not shown) [1.44] | – | 10 | 10 | 10 | 0 | – | 9
CCc1nn(CC)nc1C(F)S(=O)(=O)C1=NOC(C)(C)C1 (racemic) [1.12] | – | 10 | 10 | 9 | 10 | – | 9
Cc1nn(C)nc1C(F)(F)[S+]([O-])C1=NOC(C)(C)C1 (stereo not shown) [Compound No. 1.08, 4-[(5,5-dimethyl-4,5-dihydro-isoxazole-3-sulfinyl)-difluoro-methyl]-2,5-dimethyl-2H-1,2,31-triazole] | – | 10 | 10 | 10 | 10 | – | 9
CC1(C)CC([S+]([O-])C(F)(F)c2nn(CC3CCC3)nc2C(F)(F)F)=NO1 (stereo not shown) [1.49] | – | 10 | 9 | 10 | 10 | – | 9
Cn1nnc(Br)c1C(F)[S+]([O-])C1=NOC(C)(C)C1 (mixture of isomers) [Compound No. 3.05] | – | 10 | 8 | 10 | 10 | – | 9

Reference: US20100004128A1, “HERBICIDAL ISOXAZOLINE COMPOUNDS” (SYNGENTA CROP PROTECTION, INC., priority 2006, published 2010)
